Test results taken from US11644466B2, “Methods for treating, preventing and predicting risk of developing breast cancer” (Dana-Farber Cancer Institute, Inc., priority 2012, dated 2023).
“Also recorded” adds a separate entry of the source.

Test system: normal human breast tissues (breast epithelial cells)
Assay: Tissue explant (tissue slice) culture of normal breast tissue with pathway inhibitors, hormones or tamoxifen: frequency of BrdU+, Ki67+ and p27+ cells
Assay type: cell-based
Details: for number of cells incorporating BrdU: BrdU pulse 5 hrs; for frequency (numbers) of p27+ cells: normal breast tissue explant / tissue slice culture with inhibitor or tamoxifen, 8-10 days, FIG. 24, FIG. 26C
[1] = normal breast tissue explant culture with inhibitor for 8-10 days, versus control, FIG. 24

Experimental: The multicolor immunofluorescence for p27 and Ki67 was performed by incubating the samples with monoclonal antibody anti-p27 (1:100 dilution) and polyclonal antibody anti-Ki67 (1:50 dilution) for one hour at room temperature followed by goat anti-mouse IgG1 Alexa 555-conjugated (Invitrogen, 1:100 dilution, for detection of p27) and goat anti-rabbit Alexa 488-conjugated (Invitrogen, 1:100 dilution, for detection of Ki67) for 30 minutes at room temperature. Multicolor immunofluorescence for pSMAD2 (1:50 dilution), pEGFR (1:50 dilution) and Axin2 (1:20 dilution) were performed by incubation for 2 h at room temperature or overnight at 4° C. followed by secondary antibody Rabbit Alexa 488 conjugated (Invitrogen, 1:100 dilution for pSMAD2 and pEGFR) or mouse IgG1 Alexa-488 conjugated (Invitrogen 1:100 dilution) for Axin2 for 30 minutes at room temperature.
Scoring for the expression of each marker was done as follows: p27 fluorescence intensity was scored in the nuclei of 20 randomly selected cells using the ImageJ 1.43r software; Sox17 and COX2 expression was inferred by the combination of two variables: 1) the percentage cells expressing each marker, and 2) the intensity of each marker transformed into a categorical variable based on 0 no expression, 1 weak expression, 2 moderate expression and 3 high expression; the percentage of p27+, Ki67+ and BrdU+ cells was estimated by counting an average of 1000 cells/sample in the case of the mammary epithelium for premenopausal, postmenopausal and high-low density cases, and an average of 2,000 cells in the case of the tissue slices cultures. % of pSMAD2+ cells was estimated by counting an average of 600 cells/sample. For pEGFR and Axin2 fluorescence intensity measurement, mean fluorescence intensity was measured using Image J 1.43r software by counting an average of 600 cells/sample corrected by area and subtracting the average of background fluorescence intensity. […] For p27 and AR staining, p27 (1:100 dilution and AR (1:30 dilution) antibodies were incubated overnight at 40 C followed by incubation at RT for 1 h with subsequent staining by goat anti-mouse IgG1 Alexa 555-conjugated (Invitrogen, 1:100 dilution, for detection of p27) and anti-rabbit IgG Alexa 488-conjugated (Invitrogen, 1:80 dilution). Percentage of p27+, AR+, ER+ cells was estimated by counting 500-1000 cells/sample. Nuclear staining with DAPI and multiple fluorescence images from each section were acquired with 40× plan apo objective, following procedure described above.
Normal human breast tissues were collected from reduction mammoplasties, transported in ice-cold DMEM-F12 medium, and processed within 24 hrs. For organ cultures, thin (˜1 mm thick) slices of tissue were cut from epithelium-enriched areas and cultured for 8 days in 6-well plates using co-culture inserts to optimize the tissue/medium contact surface and changing medium (2 ml/well) every 24 hrs. […] Following 8 days of culture, labeled tissue slices were pulse with bromo-deoxy-uridine (30 μM final concentration) for 5 hrs before fixing the tissue in buffered formalin at room temperature for 24 hrs followed by embedding in paraffin. Experiments were performed in triplicates using tissue from different regions of the same breast, uncultured tissue and tissue cultured without any drugs as controls.

Row | SMILES | number of cells incorporating BrdU [1] | fraction of Ki67+ cells [1] | frequency (numbers) of p27+ cells | numbers of p27+ cells (tissue slices treated with concentrations of estrogen present in follicular phase (0.5 μM of estradiol for 8 days), FIG. 26B)
1 | COc1cc2ncnc(Nc3cccc(Cl)c3)c2cc1OC [EGFR, tyrphostin AG1478] | significantly (p<0.05) decreased | decreased |  | 
2 | CC1=C2C[C@H]3[C@@H](CC=C4C[C@@H](O)CC[C@@]43C)[C@@H]2CC[C@]12O[C@@H]1C[C@H](C)CN[C@H]1[C@H]2C [Hh, cyclopamine] | significantly (p<0.05) decreased |  |  | 
3 | COc1cc([C@@H]2c3cc4c(cc3[C@H](O)[C@H]3COC(=O)[C@@H]23)OCO4)cc(OC)c1OC [IGFR, picropodophylotoxin] | significantly (p<0.05) decreased |  | most pronouncedly decreased; also recorded: decreased | 
4 | c1ccc(-c2nn3c(c2-c2ccnc4cc(OCCN5CCOCC5)ccc24)CCC3)nc1 [TGFBR inhibitor, LY2109761] | opposite effect |  | most pronouncedly decreased; also recorded: decreased | 
5 | C[C@]12CC[C@@H]3c4ccc(O)cc4CC[C@H]3[C@@H]1CC[C@@H]2O [estrogen, estradiol] |  |  |  | high
6 | CC/C(=C(\c1ccccc1)c1ccc(OCCN(C)C)cc1)c1ccccc1 [tamoxifen] |  |  | high | 
